Results taken from patent publication US20050118228A1, “Compositions and methods for augmentation or repair of intervertebral discs” (priority 2003, published 2005).

Test system: Adult human keratinocytes
Assay: Telomerase expression (TRAP assay kit) in treated keratinocytes
Type: cell-based
Details: keratinocytes exposed to both agents in sequence: 10-25 μM 5-aza-2′-deoxycytidine for 5 days and 100-250 ng/ml trichostatin for 1 day; versus cells not exposed
Method: Adult human keratinocytes are obtained form Clonetics (San Diego, Calif.) and grown in Keratinocyte Growth Media in 5-10% CO2 at 37 degree C. according to the instructions “Keratinocyte System Instructions” BioWhittaker Catalogue number AA-1000. When the adult keratinocytes are about 40-80% confluent, 10-25 μM 5-aza-2′-deoxycytidine (Sigma, St Louis, Mo.) is added to the culture. After 4 days of incubation with 5-aza-2′-deoxycytidine, 100-250 ng/ml trichostatin (Sigma, St Louis, Mo.) is added to the culture. The culture is incubated for an additional day and sampled for telomerase activity.
Keratinocytes exposed to 10-25 μM 5-aza-2′-deoxycytidine for 5 days and 100-250 ng/ml trichostatin for 1 day and cells not exposed to these agents are assayed for the expression of telomerase (using a commercially available TRAP assay kit). These cells are assayed along side positive controls (HeLa and NH-12 cells) and negative controls (human foreskin fibroblasts and heated HN-12 cell extracts). Telomerase activity is measured by phosphoimaging telomeric products resolved on 12.5% […]. Telometric ladders indicative of telomerase activity, consistent with the presence of stem cells is observed in the positive controls and in the keratinocytes exposed to 10-25 μM 5-aza-2′-deoxycytidine for 5 days and 100-250 ng/ml trichostatin for 1 day.

Telomerase activity (telomeric ladders) | SMILES
increased telomerase activity | Nc1ncn([C@H]2C[C@H](O)[C@@H](CO)O2)c(=O)n1 [5-aza-2′-deoxycytidine]
increased telomerase activity | CC(/C=C/C(=O)NO)=C\[C@@H](C)C(=O)c1ccc(N(C)C)cc1 [trichostatin]
